# Measurements from patent US8753691B2, “Antiviral colloidal silver composition” (priority 1999, dated 2014).
# Tested on: Mycobacterium bovis BCG (TMC 1028)
# Type: cell-based
structure (smiles),measurement,value
Oc1ccccc1 [phenol],log reduction (phenol resistance),≈ 1.81
